Test results taken from US5760022A, “Pharmaceutical composition with improved bioavailability of inositol phosphate” (Perstorp AB, priority 1994, dated 1998).
Counter-ions that a name gives are not always drawn.

Assay: bioavailability of IP3 in pigs: concentration of IP3 in blood samples and AUC after intravenous injection, intraduodenal/oral formulation and oral sodium salt
Conditions: pig, in vivo
Protocol: The blood samples were assayed for the content of IP3 and these measurements were used for the calculation of the reference data as 100% of the substance is introduced into the blood stream after an intravenous injection. Another five pigs were given the composition comprising the mixture of 2,3-dihydroxypropyl octanoate and IP3 as an intraduodenal dosing. The animals were treated with Atropin and anaesthetized with Hypnodil®/Sedaperone® whereafter a laparotomy was carried out. Blood samples were collected at the time intervals mentioned above and the concentration of IP3 was determined in each sample. By calculating the area under the curve (AUC) from a graph where the concentration versus time is shown and comparing the obtained value with a similar calculation from the data after intravenous injection of the substance the bioavailability for this specific formulation is obtained.
Blood samples were collected at the same time intervals as above and the concentration of IP3 was determined. Following a similar procedure the AUC was determined.
Blood samples were collected and the concentration of IP3 were determined.

- Normalized AUC (%): 3%
- Normalized AUC (%) (iv): 100%
- concentration at 0.25 h (iv): 53700 nM
- concentration at 0.5 h (iv): 40000 nM
- concentration at 1 h (iv): 21600 nM
- concentration at 1.5 h (iv): 12100 nM
- concentration at 4 h (iv): 2600 nM
- concentration at 8 h (iv): 600 nM
- conc IP3 (iv, 0 min): 0 nM
- concentration at 0.5 h (po): 600 nM
- concentration at 1.5 h (po): 500 nM
- concentration at 2 h (po): 600 nM
- concentration at 4 h (po): 400 nM
- concentration at 6 h (po): 400 nM
- conc IP3 (po, 0 min): 0 nM
- conc IP3 (po, 480 min): 0 nM
Compound: O=P(O)(O)O[C@@H]1[C@H](OP(=O)(O)O)[C@H](O)[C@@H](O)[C@H](O)[C@H]1OP(=O)(O)O [sodium salt of IP3, D-myo-inositol-1,2,6-trisphosphate]
